In one assay the target is IRAK4 (Homo sapiens (Human), UniProt Q9NWZ3). Kind of assay: IRAK4 ADP-Glo Assay. Format: biochemical. The note with it: MBP substrate. On the procedure:
The ADP-Glo™ reagents were thawed at ambient temperature. The Kinase Detection Reagent was prepared by mixing kinase detection buffer with the lyophilized kinase detection substrate, and set aside.
A stock volume of 5× Reaction Kinase Buffer was made with a final concentration of 100 mM MgCl2, 200 mM Tris-HCl, and 0.5 mg/ml of BSA, in distilled H2O with a final pH7.4. A 2× working stock volume of Reaction Kinase Buffer was made containing a final concentration of 100 μM DTT.
The components of IRAK4 Enzyme were thawed on ice. Diluted IRAK4 in 1× Kinase Reaction Buffer (diluted from 2× buffer) was prepared at 5.0 ng/μl.
Then diluted 1:5 in 2× Reaction Buffer in a 96 well plate. 1.0 μl was transferred to a 384 well plate in duplicate. […] 1 μl of 1 mg/ml stock solution of MBP substrate was added NOTE: MBP can be combined with ATP mix with equal volume and then added at 2 μl/well. Final reaction volume was 5 μl.
The plate was centrifuged and the reaction mixture was incubated at room temperature for 60 minutes or at 30° C. for 30 minutes.
The reaction was terminated and the remaining ATP was depleted by adding 5 μl of ADP-Glo™ Reagent. The 384-well plate was centrifuged and then the reaction mixture was incubated for another 40 minutes at ambient temperature.
10 μl of the Kinase Detection Reagent was added. The plate was centrifuged and then the reaction mixture was incubated for another 30 minutes at ambient temperature.
The 384-well reaction plate was read using the WALLAC plate reader (Luminescence 0.1s).

Another assay relates to IL23p19 in THP-1 Cells. In words: LPS Induced IL23p19 in THP-1 Cells (with IFNγ Primed) Assay. The assay is classed as cell-based. The note with it: Homo sapiens, THP-1, 18 h, read-out: IL23 (THP, LPS) (IC50, μM). On the procedure:
LPS Induced IL23p19 in THP-1 Cells (with IFNγ Primed) Assay
On day 1, 50K/well THP-1 cells were seeded and primed with IFNγ (50 ng/mL) in 384-well plates for about 18 hours in RPMI media with 10% FBS. […] 50 μL/well 2× compound was added to 50 μL/well THP-1 cells (with IFNγ primed) in duplicate in 384 well tissue culture plates. […] Day 3, after stimulation for 18 hours at 37° C., 5% CO2, the assay plate was centrifuged and 70 μL/well supernatant was harvested. IL-23p19 protein in 70 µL/well of supernatant was measured by sandwich ELISA, and 25 μl/well Cell Titer Glo reagent was added to the remaining cells to measure compound toxicity.
Maxisorp immuno ELISA plates were pre-coated with 25 μL/well of anti-IL-23p19 capture antibody (2.5 ug/mL) in PBS overnight at room temperature. […] 25 μL/well of biotin labeled anti-IL-12(p40/p70) detection antibody (100 ng/mL) in PBS with 1% BSA was added and the plates were incubated at room temperature for 2 hours with shaking. […] The plates were read with a luminometer, and the chemiluminescence values were entered into Athena (Rigel) for curve fitting, EC50 calculation, and database storage.

A further assay concerns TNF-α in human PBMCs. Kind of assay: R848-induced TNF-α in human PBMCs Assay. The assay is classed as cell-based. The note with it: Homo sapiens, PBMC, 4 h, read-out: TNFα (PBMC, R848) (IC50, μM). Here is the method: R848-induced TNF-α in human PBMCs Assay
100 μL/well PBMCs (200K/well) were seeded in 96-well flat-bottom tissue culture plates. […] 100 μL/well 2× compound was added to the PBMC in the tissue culture plates. […] The cells were stimulated with R848 for an additional 4 hours at 37° C., 5% CO2. The supernatant (100 μl/well) was harvested to measure TNF-α by ELISA. […] The chemiluminescence values were entered into Athena (Rigel) for curve fitting, EC50 calculation, and database storage.
(§1) TNF-α ELISA was performed according to the vendor protocol, using 96 Well Flat-Bottom, MaxiSorp Black Immuno plates and 100 μL/well of supernatant. The plates were developed using 100 μL/well of Super Signal ELISA Pico Chemiluminescent Substrate. The plates were read with a luminometer, and the chemiluminescence values were entered into Athena (Rigel) for curve fitting, EC50 calculation, and database storage.

For assay [1], the system named is TNF-α in Human Primary Monocyte-Derived Dendritic Cells. In words: Gardiquimod-Induced TNF-α in Human Primary Monocyte-Derived Dendritic Cells. Conditions: Dendritic cell. Format: cell-based. Here is the method: Gardiquimod-Induced TNF-α in Human Primary Monocyte-Derived Dendritic Cells
After 2 hours, the media including floating cells was carefully removed and 12 ml of fresh RPMI media (10% FBS) containing GM-CSF (100 ng/ml) and IL-4 (20 ng/ml) were added to the adherent monocytes. The monocytes were allowed to differentiate for 7 days at 37° C., 5% CO2 for 7 days, supplementing with fresh GM-CSF and IL-4 after 3 days. The differentiated dendritic cells (DC) were harvested by centrifugation (1200 rpm/5 min). The DCs were primed at 37° C., 5% CO2 for 24 hours with 50 ng/ml IFN-γ (1000 U/ml) at 50K/well in 100 μl/well of fresh RPMI media (10% FBS) in a white clear bottom 96 well plate.
The primed DCs were pre-incubated with test compound for 1 hour at 37° C., 5% CO2 by adding 100 μl of RPMI media containing 2× concentrated test compound per well (0.5% final DMSO concentration).
DCs were stimulated with Gardiquimod (10 μl per well of 20× concentrated Gardiquimod solution in RPMI media to give a final concentration of 4 μg/ml) at 37° C., 5% CO2 for an additional 6 hours. The supernatant (100 μl/well) was harvested to measure TNF-α by ELISA. […] The chemiluminescence values were entered into Athena (Rigel) for curve fitting, EC50 calculation, and database storage.
as §1

Setting [2] is: IFNγ-primed monocyte-derived dendritic cells, 4 μg/ml Gardiquimod, 6 hours, TNF-α ELISA, read-out: TNFα (DC, GARD) (IC50).

Drawing on US20230391748A1, “BICYCLIC INHIBITORS OF IRAK” (priority 2022, published 2023), this text covers IC50 for 14 molecules.

Where two headings read alike, the source gives them in different places.

IRAK4, sequence (Q9NWZ3 whole entry): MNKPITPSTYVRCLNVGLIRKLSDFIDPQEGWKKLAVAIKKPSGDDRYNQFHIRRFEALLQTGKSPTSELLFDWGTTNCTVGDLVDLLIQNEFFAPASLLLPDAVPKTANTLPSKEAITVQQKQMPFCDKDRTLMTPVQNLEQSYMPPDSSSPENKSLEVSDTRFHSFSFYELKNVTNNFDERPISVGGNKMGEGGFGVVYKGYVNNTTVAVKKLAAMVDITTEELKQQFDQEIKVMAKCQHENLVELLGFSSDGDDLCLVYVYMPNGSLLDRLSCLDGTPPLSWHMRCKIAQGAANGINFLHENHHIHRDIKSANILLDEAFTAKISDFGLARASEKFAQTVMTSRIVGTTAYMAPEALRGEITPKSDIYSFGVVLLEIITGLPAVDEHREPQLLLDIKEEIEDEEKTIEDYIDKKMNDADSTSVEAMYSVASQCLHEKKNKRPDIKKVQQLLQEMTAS

For orientation: IC50 means the concentration that gives 50% inhibition. `CC(C)Oc1cc2c(OC[C@@H]3CCC(=O)N3)ncc(Br)c2cc1C(N)=O` [Compound I-1, (S)-4-bromo-7-isopropoxy-1-((5-oxopyrrolidin-2-yl)methoxy)isoquinoline-6-carboxamide]: the IC50 worked out at 34 nM at IRAK4; 9.48 µM with IL23p19 in THP-1 Cells; 2.61 µM in the assay on TNF-α in human PBMCs; 2.64 µM in assay [1] (6 h, read-out: TNFα (DC, GARD) (IC50, μM)).

Take `CC(C)Oc1cc2c(OC[C@@H]3CC(F)(F)C(=O)N3)ncc(Br)c2cc1C(N)=O` [Compound I-2, (S)-4-bromo-1-((4,4-difluoro-5-oxopyrrolidin-2-yl)methoxy)-7-isopropoxyisoquinoline-6-carboxamide]: the IC50 was determined as 4.4 nM against IRAK4, 5.53 µM in the assay on IL23p19 in THP-1 Cells, 1.15 µM in the assay on TNF-α in human PBMCs and 5.34 µM in assay [1] (setting [2]).

`CC(C)Oc1cc2c(OC[C@@H]3CCC(=O)N3)ncc(C#CC(C)(C)O)c2cc1C(N)=O` [Compound I-3, (S)-4-(3-hydroxy-3-methylbut-1-yn-1-yl)-7-isopropoxy-1-((5-oxopyrrolidin-2-yl)methoxy)isoquinoline-6-carboxamide]: the IC50 was 12.5 nM on IRAK4, 0.879 µM with IL23p19 in THP-1 Cells, 0.36 µM in the assay with TNF-α in human PBMCs and 0.411 µM in assay [1] (setting [2]).

As for `CC(C)Oc1cc2c(OC[C@@H]3CCC(=O)N3)ncc(C#CC(C)(C)CO)c2cc1C(N)=O` [Compound I-5, (S)-4-(4-hydroxy-3,3-dimethylbut-1-yn-1-yl)-7-isopropoxy-1-((5-oxopyrrolidin-2-yl)methoxy)isoquinoline-6-carboxamide], the IC50 is 120 nM on IRAK4, 6.51 µM in the assay on IL23p19 in THP-1 Cells, 0.433 µM in the assay on TNF-α in human PBMCs and 0.488 µM in assay [1] (setting [2]).

Consider `CC(C)Oc1cc2c(OC[C@@H]3CCC(=O)N3)ncc(C#CC3CCOCC3)c2cc1C(N)=O` [Compound I-6, (S)-7-isopropoxy-1-((5-oxopyrrolidin-2-yl)methoxy)-4-((tetrahydro-2H-pyran-4-yl)ethynyl)isoquinoline-6-carboxamide], for which the IC50 at IRAK4 was 5.1 nM; in the assay on IL23p19 in THP-1 Cells, 0.195 µM; in the assay on TNF-α in human PBMCs, 0.199 µM; in assay [1] (setting [2]), 0.334 µM.

Turning to `CC(C)Oc1cc2c(OC[C@@H]3CCC(=O)N3)ncc(C#CCN3CCOCC3)c2cc1C(N)=O` [Compound I-7, (S)-7-isopropoxy-4-(3-morpholinoprop-1-yn-1-yl)-1-((5-oxopyrrolidin-2-yl)methoxy)isoquinoline-6-carboxamide], the IC50 is 8.2 nM on IRAK4, 0.527 µM in the assay with IL23p19 in THP-1 Cells, 0.402 µM with TNF-α in human PBMCs and 0.383 µM in assay [1] (setting [2]).

As for `CC(C)Oc1cc2c(OC[C@@H]3CCC(=O)N3)ncc(C#CCCN3CCOCC3)c2cc1C(N)=O` [Compound I-8, (S)-7-isopropoxy-4-(4-morpholinobut-1-yn-1-yl)-1-((5-oxopyrrolidin-2-yl)methoxy)isoquinoline-6-carboxamide], the IC50 came to 12.3 nM on IRAK4, 0.332 µM with IL23p19 in THP-1 Cells, 0.411 µM in the assay with TNF-α in human PBMCs and 0.313 µM in assay [1] (setting [2]).

Turning to `CC(C)Oc1cc2c(OC[C@@H]3CCC(=O)N3)ncc(C#CC3(O)CCCC3)c2cc1C(N)=O` [Compound I-9, (S)-4-((1-hydroxycyclopentyl)ethynyl)-7-isopropoxy-1-((5-oxopyrrolidin-2-yl)methoxy)isoquinoline-6-carboxamide], the 50% inhibitory concentration (IC50) against IRAK4 was determined as 9.9 nM; in the assay with IL23p19 in THP-1 Cells, 0.394 µM; in the assay on TNF-α in human PBMCs, 0.319 µM; in assay [1] (setting [2]), 0.21 µM.

Regarding `CC(C)Oc1cc2c(OC[C@@H]3CCC(=O)N3)ncc(C#CC3(O)CCOCC3)c2cc1C(N)=O` [Compound I-10, (S)-4-((4-hydroxytetrahydro-2H-pyran-4-yl)ethynyl)-7-isopropoxy-1-((5-oxopyrrolidin-2-yl)methoxy)isoquinoline-6-carboxamide], the IC50 at IRAK4 was 11.6 nM; with IL23p19 in THP-1 Cells, 3.28 µM; in the assay on TNF-α in human PBMCs, 0.873 µM; in assay [1] (setting [2]), 2.93 µM.

As for `CC(C)Oc1cc2c(OC[C@@H]3CCC(=O)N3)ncc(C#CCC3CCOCC3)c2cc1C(N)=O` [Compound I-11, (S)-7-isopropoxy-1-((5-oxopyrrolidin-2-yl)methoxy)-4-(3-(tetrahydro-2H-pyran-4-yl)prop-1-yn-1-yl)isoquinoline-6-carboxamide], the IC50 on IRAK4 was found to be 10.5 nM; in the assay on IL23p19 in THP-1 Cells it was 0.474 µM; in the assay on TNF-α in human PBMCs, 0.32 µM; in assay [1] (setting [2]) it was 0.199 µM.

With `CC(C)Oc1cc2c(OC[C@@H]3CCC(=O)N3)ncc(C#CC3(O)CCN(C(=O)OC(C)(C)C)CC3)c2cc1C(N)=O` [Compound I-12, tert-butyl (S)-4-((6-carbamoyl-7-isopropoxy-1-((5-oxopyrrolidin-2-yl)methoxy)isoquinolin-4-yl)ethynyl)-4-hydroxypiperidine-1-carboxylate], the IC50 on IRAK4 was determined as 41.2 nM; in the assay on IL23p19 in THP-1 Cells, 1.25 µM; with TNF-α in human PBMCs, 0.448 µM; in assay [1] (setting [2]), 6.09 µM.

In the case of `CC(C)Oc1cc2c(OC[C@@H]3CC(F)(F)C(=O)N3)ncc(C#CC3(O)CCN(C(=O)OC(C)(C)C)CC3)c2cc1C(N)=O` [Compound I-52, tert-butyl (S)-4-((6-carbamoyl-1-((4,4-difluoro-5-oxopyrrolidin-2-yl)methoxy)-7-isopropoxyisoquinolin-4-yl)ethynyl)-4-hydroxypiperidine-1-carboxylate], the IC50 with IL23p19 in THP-1 Cells amounted to 4.57 µM; in the assay with TNF-α in human PBMCs, 0.338 µM; in assay [1] (setting [2]) it was 0.927 µM.

Consider `CC(C)Oc1cc2c(O[C@@H]3CCCNC3)ncc(C#CC3(O)CCCC3)c2cc1C(N)=O` [Compound I-85, (R)-4-((1-hydroxycyclopentyl)ethynyl)-7-isopropoxy-1-(piperidin-3-yloxy)isoquinoline-6-carboxamide], for which the values for the IC50 (in the assay with IL23p19 in THP-1 Cells; in the assay with TNF-α in human PBMCs; in assay [1] (setting [2])) were 1.96 µM, 2.08 µM and 4.86 µM, respectively.

For the molecule `CC(C)Oc1cc2c(O[C@@H]3CCCN(C(=O)CC#N)C3)ncc(-c3cnn(C4CCNCC4)c3)c2cc1C(N)=O` [Compound I-122, (R)-1-((1-(2-cyanoacetyl)piperidin-3-yl)oxy)-7-isopropoxy-4-(1-(piperidin-4-yl)-1H-pyrazol-4-yl)isoquinoline-6-carboxamide], the values for the IC50 (on IRAK4; with TNF-α in human PBMCs; in assay [1] (setting [2])) were 24 nM, 2.16 µM and 1 µM, respectively.
